From patent US12077503B2, “Substituted cyclic amides and their use as herbicides” (FMC CORPORATION, priority 2015, dated 2024)

Tests used:
Assay type in all cases: in vivo
[1] = system: barnyardgrass (Echinochloa crus-galli); test: Test G Pre-Emergence Protocol; conditions: Echinochloa crus-galli, pre-emergence, 312 h, evaluated after 13 days; for pest or weed control at 15.625 g/ha: 15.625 g ai/ha, read-out: Barnyard grass damage rating (100=total damage to plant; 0=no damage to plant); for pest or weed control at 62.5 g/ha: 62.5 g ai/ha, 100=total damage to plant, 0=no damage to plant, read-out: plant damage rating, Barnyardgrass; for pest or weed control at 250 g/ha: 250 g ai/ha, read-out: Barnyardgrass damage rating (100=total damage to plant; 0=no damage to plant)
Summary of the method: (§1)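 Herbicidal effect was rated 13 days post-application on a scale where 100 equals total damage. Spraying took place the day after sowing, using 15.625, 62.5 or 250 g/ha of compound in a 50:50 acetone/water solution with 0.5% Tween 20.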

corn (Zea mays) [2] = test: Test G Pre-Emergence Protocol; conditions: Zea mays, pre-emergence, 312 h, evaluated after 13 days; for plant injury at 15.625 g/ha: 15.625 g ai/ha; for plant injury at 15.625 g/ha / plant injury at 250 g/ha: read-out: Corn damage rating (100=total damage to plant; 0=no damage to plant); for plant injury at 62.5 g/ha: 62.5 g ai/ha, 100=total damage to plant, 0=no damage to plant, read-out: plant damage rating, Corn; for plant injury at 250 g/ha: 250 g ai/ha
Summary of the method: as §1

[3] = system: giant foxtail (Setaria faberi); test: Test G Pre-Emergence Protocol; conditions: Setaria faberi, pre-emergence, 312 h, evaluated after 13 days; for pest or weed control at 15.625 g/ha: 15.625 g ai/ha; for pest or weed control at 15.625 g/ha / pest or weed control at 250 g/ha: read-out: Foxtail, Giant damage rating (100=total damage to plant; 0=no damage to plant); for pest or weed control at 62.5 g/ha: 62.5 g ai/ha, 100=total damage to plant, 0=no damage to plant, read-out: plant damage rating, Foxtail, Giant; for pest or weed control at 250 g/ha: 250 g ai/ha
Summary of the method: as §1

[4] = system: ivy-leaved morning glory (Ipomoea hederacea); test: Test G Pre-Emergence Protocol; conditions: Ipomoea, pre-emergence, 312 h, evaluated after 13 days; for pest or weed control at 15.625 g/ha: 15.625 g ai/ha, read-out: Morning-glory, Ivy-leaved damage rating (100=total damage to plant; 0=no damage to plant); for pest or weed control at 62.5 g/ha: 62.5 g ai/ha, 100=total damage to plant, 0=no damage to plant, read-out: plant damage rating, Morningglory, Ivy-leaved; for pest or weed control at 250 g/ha: 250 g ai/ha, read-out: Morningglory, Ivy-leaved damage rating (100=total damage to plant; 0=no damage to plant)
Summary of the method: as §1

[5] = system: redroot pigweed (Amaranthus retroflexus); test: Test G Pre-Emergence Protocol; conditions: Amaranthus retroflexus, pre-emergence, 312 h, evaluated after 13 days; for pest or weed control at 15.625 g/ha: 15.625 g ai/ha; for pest or weed control at 15.625 g/ha / pest or weed control at 250 g/ha: read-out: Pigweed, Redroot damage rating (100=total damage to plant; 0=no damage to plant); for pest or weed control at 62.5 g/ha: 62.5 g ai/ha, 100=total damage to plant, 0=no damage to plant, read-out: plant damage rating, Pigweed, Redroot; for pest or weed control at 250 g/ha: 250 g ai/ha
Summary of the method: as §1

[6] = system: velvetleaf (Abutilon theophrasti); test: Test G Pre-Emergence Protocol; conditions: Abutilon theophrasti, pre-emergence, 312 h, evaluated after 13 days; for pest or weed control at 15.625 g/ha: 15.625 g ai/ha; for pest or weed control at 15.625 g/ha / pest or weed control at 250 g/ha: read-out: Velvetleaf damage rating (100=total damage to plant; 0=no damage to plant); for pest or weed control at 62.5 g/ha: 62.5 g ai/ha, 100=total damage to plant, 0=no damage to plant, read-out: plant damage rating, Velvetleaf; for pest or weed control at 250 g/ha: 250 g ai/ha
Summary of the method: as §1

[7] = system: barnyardgrass (Echinochloa crus-galli); test: Test G Post-Emergence Protocol; conditions: Echinochloa crus-galli, post-emergence, 312 h; for pest or weed control at 15.625 g/ha: 15.625 g ai/ha, evaluated after 13 days (100=total damage to plant; 0=no damage to plant), read-out: Barnyardgrass damage rating; for pest or weed control at 62.5 g/ha: 62.5 g ai/ha, read-out: Barnyardgrass damage rating (100=total damage to plant; 0=no damage to plant); for pest or weed control at 62.5 g/ha / pest or weed control at 250 g/ha: evaluated after 13 days; for pest or weed control at 250 g/ha: 250 g ai/ha, read-out: damage to plant, Barnyardgrass (100=total damage to plant; 0=no damage to plant)
Summary of the method: (§2)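 Values are percent visual injury at 13 days after treatment (0 none, 100 total). Treatment was a post-emergence spray at 15.625, 62.5 or 250 g/ha on 8-day-old pot plants kept at 24/16 °C.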

corn (Zea mays) [8] = test: Test G Post-Emergence Protocol; conditions: Zea mays, post-emergence, 312 h; for plant injury at 15.625 g/ha: 15.625 g ai/ha, evaluated after 13 days (100=total damage to plant; 0=no damage to plant), read-out: Corn damage rating; for plant injury at 62.5 g/ha: 62.5 g ai/ha, read-out: Corn damage rating (100=total damage to plant; 0=no damage to plant); for plant injury at 62.5 g/ha / plant injury at 250 g/ha: evaluated after 13 days; for plant injury at 250 g/ha: 250 g ai/ha, read-out: damage to plant, Corn (100=total damage to plant; 0=no damage to plant)
Summary of the method: as §2

[9] = system: giant foxtail (Setaria faberi); test: Test G Post-Emergence Protocol; conditions: Setaria faberi, post-emergence, 312 h; for pest or weed control at 15.625 g/ha: 15.625 g ai/ha, evaluated after 13 days (100=total damage to plant; 0=no damage to plant), read-out: Foxtail, Giant damage rating; for pest or weed control at 62.5 g/ha: 62.5 g ai/ha, read-out: Foxtail, Giant damage rating (100=total damage to plant; 0=no damage to plant); for pest or weed control at 62.5 g/ha / pest or weed control at 250 g/ha: evaluated after 13 days; for pest or weed control at 250 g/ha: 250 g ai/ha, read-out: damage to plant, Foxtail, Giant (100=total damage to plant; 0=no damage to plant)
Summary of the method: as §2

[10] = system: ivy-leaved morning glory (Ipomoea hederacea); test: Test G Post-Emergence Protocol; conditions: Ipomoea, post-emergence, 312 h; for pest or weed control at 15.625 g/ha: 15.625 g ai/ha, evaluated after 13 days (100=total damage to plant; 0=no damage to plant), read-out: Morningglory, Ivy-leaved damage rating; for pest or weed control at 62.5 g/ha: 62.5 g ai/ha, read-out: Morningglory, Ivy-leaved damage rating (100=total damage to plant; 0=no damage to plant); for pest or weed control at 62.5 g/ha / pest or weed control at 250 g/ha: evaluated after 13 days; for pest or weed control at 250 g/ha: 250 g ai/ha, read-out: damage to plant, Morningglory, Ivy-leaved (100=total damage to plant; 0=no damage to plant)
Summary of the method: as §2

[11] = system: redroot pigweed (Amaranthus retroflexus); test: Test G Post-Emergence Protocol; conditions: Amaranthus retroflexus, post-emergence, 312 h; for pest or weed control at 15.625 g/ha: 15.625 g ai/ha, evaluated after 13 days (100=total damage to plant; 0=no damage to plant), read-out: Pigweed, Redroot damage rating; for pest or weed control at 62.5 g/ha: 62.5 g ai/ha, read-out: Pigweed, Redroot damage rating (100=total damage to plant; 0=no damage to plant); for pest or weed control at 62.5 g/ha / pest or weed control at 250 g/ha: evaluated after 13 days; for pest or weed control at 250 g/ha: 250 g ai/ha, read-out: damage to plant, Pigweed, Redroot (100=total damage to plant; 0=no damage to plant)
Summary of the method: as §2

[12] = system: velvetleaf (Abutilon theophrasti); test: Test G Post-Emergence Protocol; conditions: Abutilon theophrasti, post-emergence, 312 h; for pest or weed control at 15.625 g/ha: 15.625 g ai/ha, evaluated after 13 days (100=total damage to plant; 0=no damage to plant), read-out: Velvetleaf damage rating; for pest or weed control at 62.5 g/ha: 62.5 g ai/ha, read-out: Velvetleaf damage rating (100=total damage to plant; 0=no damage to plant); for pest or weed control at 62.5 g/ha / pest or weed control at 250 g/ha: evaluated after 13 days; for pest or weed control at 250 g/ha: 250 g ai/ha, read-out: damage to plant, Velvetleaf (100=total damage to plant; 0=no damage to plant)
Summary of the method: as §2

| Compound | pest or weed control at 15.625 g/ha [1] [%] | pest or weed control at 62.5 g/ha [1] [%] | pest or weed control at 250 g/ha [1] [%] | plant injury at 15.625 g/ha (corn (Zea mays) [2]) [%] | plant injury at 62.5 g/ha (corn (Zea mays) [2]) [%] | plant injury at 250 g/ha (corn (Zea mays) [2]) [%] | pest or weed control at 15.625 g/ha [3] [%] | pest or weed control at 62.5 g/ha [3] [%] | pest or weed control at 250 g/ha [3] [%] | pest or weed control at 15.625 g/ha [4] [%] | pest or weed control at 62.5 g/ha [4] [%] | pest or weed control at 250 g/ha [4] [%] | pest or weed control at 15.625 g/ha [5] [%] | pest or weed control at 62.5 g/ha [5] [%] | pest or weed control at 250 g/ha [5] [%] | pest or weed control at 15.625 g/ha [6] [%] | pest or weed control at 62.5 g/ha [6] [%] | pest or weed control at 250 g/ha [6] [%] | pest or weed control at 15.625 g/ha [7] [%] | pest or weed control at 62.5 g/ha [7] [%] | further results |
| --- | --- | --- | --- | --- | --- | --- | --- | --- | --- | --- | --- | --- | --- | --- | --- | --- | --- | --- | --- | --- | --- |
| CN1C[C@H](c2ccc(F)c(C#N)c2)[C@@H](C(=O)Nc2ccccc2F)C1=O (racemic) [Compound 1468] | 10 | 70 | 80 | 0 | 0 | 0 | 80 | 80 | 90 | 0 | 0 | 0 | 0 | 0 | 0 | 0 | 0 | 0 | 10 | 50 | pest or weed control at 250 g/ha [7]: 40%; plant injury at 15.625 g/ha (corn (Zea mays) [8]): 10%; plant injury at 62.5 g/ha (corn (Zea mays) [8]): 10%; plant injury at 250 g/ha (corn (Zea mays) [8]): 10%; pest or weed control at 15.625 g/ha [9]: 30%; pest or weed control at 62.5 g/ha [9]: 70%; pest or weed control at 250 g/ha [9]: 70%; pest or weed control at 15.625 g/ha [10]: 10%; pest or weed control at 62.5 g/ha [10]: 0%; pest or weed control at 250 g/ha [10]: 10%; pest or weed control at 15.625 g/ha [11]: 10%; pest or weed control at 62.5 g/ha [11]: 0%; pest or weed control at 250 g/ha [11]: 30%; pest or weed control at 15.625 g/ha [12]: 0%; pest or weed control at 62.5 g/ha [12]: 0%; pest or weed control at 250 g/ha [12]: 10% |
| Cc1nccc(NC(=O)[C@@H]2C(=O)N(C)C[C@H]2c2ccc(C(F)(F)F)cc2)c1C (racemic) [Compound 1630] | 0 | 0 | 0 | 0 | 0 | 0 | 0 | 0 | 0 | 0 | 0 | 0 | 0 | 0 | 0 | 0 | 0 | 0 | 0 | 0 | pest or weed control at 250 g/ha [7]: 0%; plant injury at 15.625 g/ha (corn (Zea mays) [8]): 0%; plant injury at 62.5 g/ha (corn (Zea mays) [8]): 0%; plant injury at 250 g/ha (corn (Zea mays) [8]): 0%; pest or weed control at 15.625 g/ha [9]: 0%; pest or weed control at 62.5 g/ha [9]: 0%; pest or weed control at 250 g/ha [9]: 0%; pest or weed control at 15.625 g/ha [10]: 0%; pest or weed control at 62.5 g/ha [10]: 0%; pest or weed control at 250 g/ha [10]: 0%; pest or weed control at 15.625 g/ha [11]: 0%; pest or weed control at 62.5 g/ha [11]: 0%; pest or weed control at 250 g/ha [11]: 0%; pest or weed control at 15.625 g/ha [12]: 0%; pest or weed control at 62.5 g/ha [12]: 0%; pest or weed control at 250 g/ha [12]: 0% |
| Cc1ccc(NC(=O)[C@H]2C(=O)N(C)C[C@@H]2c2ccc(C(F)(F)F)cc2)c(C)c1 (racemic) [Compound 1410] | 0 | 0 | 20 | 0 | 0 | 0 | 0 | 0 | 80 | 0 | 0 | 10 | 0 | 20 | 10 | 0 | 10 | 20 | 0 | 0 | pest or weed control at 250 g/ha [7]: 20%; plant injury at 15.625 g/ha (corn (Zea mays) [8]): 0%; plant injury at 62.5 g/ha (corn (Zea mays) [8]): 0%; plant injury at 250 g/ha (corn (Zea mays) [8]): 10%; pest or weed control at 15.625 g/ha [9]: 0%; pest or weed control at 62.5 g/ha [9]: 0%; pest or weed control at 250 g/ha [9]: 50%; pest or weed control at 15.625 g/ha [10]: 0%; pest or weed control at 62.5 g/ha [10]: 0%; pest or weed control at 250 g/ha [10]: 20%; pest or weed control at 15.625 g/ha [11]: 0%; pest or weed control at 62.5 g/ha [11]: 0%; pest or weed control at 250 g/ha [11]: 10%; pest or weed control at 15.625 g/ha [12]: 0%; pest or weed control at 62.5 g/ha [12]: 0%; pest or weed control at 250 g/ha [12]: 0% |
